Experiment [1] concerns the target T1, Prothrombin (Homo sapiens, UniProt P00734). Description: Binding affinity to thrombin by surface plasmon resonance assay. On the technique in general: In SPR one partner is held on a chip, and binding of the other changes the refractive index at the surface.
In experiment [2] the target is T1, Prothrombin. Description: Binding affinity to thrombin in presence of 100 mJ/cm'2 UV light by surface plasmon resonance assay.

Each structure is given as a SMILES string.

Regarding `Cc1cn([C@H]2C[C@H](OP(=O)(O)OC[C@H]3O[C@@H](n4cnc5c(=O)[nH]c(N)nc54)[C@H](O)[C@@H]3OP(=O)(O)OC[C@H]3O[C@@H](n4cnc5c(=O)[nH]c(N)nc54)[C@H](O)[C@@H]3OP(=O)(O)OC[C@H]3O[C@@H](n4cc(C)c(=O)[nH]c4=O)C[C@@H]3OP(=O)(O)OC[C@H]3O[C@@H](n4cc(C)c(=O)[nH]c4=O)C[C@@H]3OP(=O)(O)OC[C@H]3O[C@@H](n4cnc5c(=O)[nH]c(N)nc54)[C@H](O)[C@@H]3OP(=O)(O)OC[C@H]3O[C@@H](n4cnc5c(=O)[nH]c(N)nc54)[C@H](O)[C@@H]3O)[C@@H](COP(=O)(O)O[C@H]3[C@@H](O)[C@H](n4cnc5c(=O)[nH]c(N)nc54)O[C@@H]3COP(=O)(O)O[C@H]3C[C@H](n4cc(C)c(=O)[nH]c4=O)O[C@@H]3COP(=O)(O)O[C@H]3[C@@H](O)[C@H](n4cnc5c(=O)[nH]c(N)nc54)O[C@@H]3COP(=O)(O)O[C@H]3[C@@H](O)[C@H](n4cnc5c(=O)[nH]c(N)nc54)O[C@@H]3COP(=O)(O)O[C@H]3C[C@H](n4cc(C)c(=O)[nH]c4=O)O[C@@H]3COP(=O)(O)O[C@H]3C[C@H](n4cc(C)c(=O)[nH]c4=O)O[C@@H]3COP(=O)(O)O[C@H]3[C@@H](O)[C@H](n4cnc5c(=O)[nH]c(N)nc54)O[C@@H]3COP(=O)(O)O[C@H]3[C@@H](O)[C@H](n4cnc5c(=O)[nH]c(N)nc54)O[C@@H]3CO)O2)c(=O)[nH]c1=O` [THROMBIN APTAMER], the Kd (as a rule, the concentration at which binding is half-saturated) on Prothrombin [1] worked out at 320 nM; at Prothrombin [2], 390 nM.

The values are drawn from ChEMBL document CHEMBL1154228, “Photoregulation of thrombin aptamer activity using Bhc caging strategy” (Bioorg Med Chem Lett, 2009).
